# Values joined by “and” are separate entries in the source; they are usually repeats but may differ in a detail not shown here. Identical values can stand only once.
# Assays:
# D2/3 receptors [1] = assay: chronic haloperidol treatment, striatal D2/3 Bavail by [^123I]epidepride partial saturation SPECT; type: in vivo, rat; settings: for increase in Bavail vs vehicle-treated group: haloperidol 1 mg/kg/day 28 days; for Bavail of [^123I]epidepride in haloperidol-treated group: haloperidol 1 mg/kg/day sc 28 days, scan 7 days after, n=3
# Text: (§1) 18 male Mdr1a (P-glycoprotein) knock-out (KO) rats, weighing between 380 and 500 g, were employed in the study. Using this rat strain allowed us to study the kinetics of [^123I]epidepride independently of the potentially confounding effect of the P-glycoprotein [30–34]. Of these, 3 rats were employed in an in vivo multi-injection SPECT imaging protocol for absolute D2/3 receptor quantification (SPECT-MI in Table 1). Four rats were employed in an arterial plasma analysis for the study of plasma kinetics of the radiotracer and the estimation of the free parent radiotracer fraction (TLC in Table 1). Four rats were employed in a SPECT experiment with a partial D2/3 receptor saturation design for the determination of Bavail and appKd parameters from an in vivo Scatchard plot (SPECT-PSA in Table 1). Finally, 7 rats were employed in a preliminary study of the effect of a chronic haloperidol treatment on the Bavail and appKd of the D2/3 receptors in rats (SPECT-PSA_HAL for haloperidol-treated and SPECT-PSA_CON for control rats in Table 1, see Additional file 1).
# For this purpose, two groups of rats were treated with either haloperidol (1 mg/kg/day, n=3) or vehicle (n=4) for 28 days. A [^123I]epidepride SPECT scan using the partial saturation protocol was performed 7 days (a sufficient period for the complete elimination of haloperidol) after the end of the treatment period to assess neurochemical changes with respect to the D2/3 receptor. The radioactivity doses that were employed are presented in Table 1 (SPECT-PSA_HAL for haloperidol-treated and SPECT-PSA_CON for control rats). Statistical analysis of the difference in the quantitative parameter values between the groups was performed by means of a two-sample t test.
# Haloperidol was purchased from Sigma-Aldrich (Buchs, Switzerland). It was dissolved in dimethyl-sulfoxide (DMSO) 50% v/v in water. Osmotic pumps (Alzet, Durect, Cupertino, CA, USA) were employed to continuously deliver the treatment at a dose of 1 mg/kg/day over 28 days. For the pump implantation, rats were anesthetized with isoflurane (3% for induction and 1-2 % for maintenance). Body temperature was monitored during the scans and maintained at 37±1 °C by means of a thermostatically controlled heating blanket. An incision was performed in the lateral abdominal wall and a pump was subcutaneously implanted. Subcutaneous analgesia (0.02 mg/kg/8h sc; Temgesic, Reckitt Benckiser Pharmaceuticals Inc) was administered right before surgery and was continued per os in the drinking water for 48h. For the removal of the osmotic pumps, the same surgical procedure was performed after the end of the treatment period (28 days).
# D2/3 receptors [2] = assay: in vivo partial saturation SPECT study (in vivo Scatchard plot); set-up: species or system rat; settings: mean of 4 rats; for Kd: read-out: appKD
# Text: as §1
# (§2) SPECT scans were performed with a U-SPECT-II camera (MiLabs, Utrecht, Netherlands). In rats that underwent SPECT scans with the multi-injection protocol, two polyethylene catheters (i.d. = 0.58 mm, o.d. = 0.96 mm) were inserted in the left femoral vein and artery for radiotracer administration and blood sampling, respectively. On the other hand, in rats that underwent SPECT scans for the partial saturation protocol, radiotracer injection was performed via a tail vein catheter. SPECT scans were performed under isoflurane anesthesia (3% for induction and 1–2% for maintenance). Body temperature was monitored during the scans and maintained at 37 ± 1 °C by means of a thermostatically controlled heating blanket.
# (§3) SPECT image reconstruction was performed using a pixel-ordered subset expectation maximization (P-OSEM, 0.4-mm voxel size, 4 iterations, 6 subsets) algorithm using MiLabs image reconstruction software. Radioactive decay correction was performed, while correction for attenuation or scatter was not. Following reconstruction, dynamic images from the partial saturation experiment were denoised with factor analysis (FA) using Pixies software (Apteryx, Issy-les-Moulineaux, France) as previously described. FA allows the decomposition of a dynamic signal into a few elementary components, termed factors. In this study, 3 factors were retained and the rest of the signal was discarded as noise. SPECT images were processed with PMOD software v3.7 (PMOD Technologies Ltd, Zurich, Switzerland). Averaged images corresponding to the ten first frames of the acquisition were co-registered to a magnetic resonance imaging (MRI) template integrated in PMOD [37]. Transformation matrices were then applied to dynamic images.
# A partial saturation protocol was employed to estimate Bavail and appKd as recently described for another D2/3 radiotracer based on the original description by Delforge et al., as optimized by Wimberley et al.. Briefly, co-injection of a dose of the unlabeled compound at doses that occupy 50–70% of the receptors allows to form a Scatchard plot when the specifically bound fraction of radiotracer (CS) is plotted against the ratio of CS to the non-displaceable binding at the same region (CS/CND). The intercept to the CS axis provides the Bavail and the inverse of the slope the appKd.
# In the partial saturation approach, the cerebellar TAC is employed as an approximation of the non-displaceable binding in the target brain VOIs. Given the differences in the concentration of this binding between the Cer and the target VOIs, as well as the presence of a non-negligible specific binding in the Cer with [^123I]epidepride, the cerebellar TAC has to be corrected. […]
# [3] = arterial plasma analysis: metabolite correction and plasma protein binding; type: in vivo; settings: rat arterial plasma, 4 rats
# Text: as §1
# The whole multi-injection study TAC data was fitted in with a two-tissue compartment five-parameter model (2T-5k), to estimate K1, k2, kon, koff, and Bavail as previously described. The free, non-metabolized radiotracer fraction in the plasma was used as the input function. During dynamic SPECT acquisitions, 40 arterial blood samples (of 25 μl each) were withdrawn after each radiotracer injection at regular time intervals. Radioactivity was measured in a gamma counting system and expressed in kBq/ml after calibration. To estimate the plasma input function in in vivo SPECT experiments, only whole-blood radioactivity was measured individually and the free, non-metabolized radiotracer fraction was fitted using a model estimated in an independent experiment. Indeed, metabolite correction and plasma protein binding analysis for the estimation of radiotracer plasma input function was performed in an independent group of 4 rats, as previously described The analysis was performed in MATLAB software R2019 (Mathworks, USA).
# As described in the “Methods” section describing the multi-injection study protocol, in each dynamic brain SPECT study, only whole-arterial blood radioactivity was measured. The free, non-metabolized radiotracer fraction was estimated by fitting average data from an independent group of four rats in an experiment that was independent from the SPECT scan experiments. The parameters of the bi-exponential function describing the kinetics of the mean percent non-metabolized plasma radiotracer were A1 = 0.61, B1 = − 0.20, A2 = 0.27, B2 = − 0.006. Average percentage of radiotracer bound to plasma proteins was 22% (f1 = 0.22 ± 0.06). […]
# D2/3 receptors [4] = assay: multi-injection SPECT protocol, 2T-5k full kinetic modeling; type: in vivo, rat; settings: mean of 3 rats; for Kd: read-out: appKD
# Text: as §1, §2, §3
# A multi-injection protocol for full kinetic modeling of [^123I]epidepride was employed. The scan protocol began with a first injection of the radiotracer at a high-specific activity, followed by a second co-injection of [^123I]epidepride and the unlabeled compound at 180 min and a third injection of the unlabeled compound alone at 240 min. The overall scan protocol included 360 1-min frames (Fig. 1).
# The whole multi-injection study TAC data was fitted in with a two-tissue compartment five-parameter model (2T-5k), to estimate K1, k2, kon, koff, and Bavail as previously described. The free, non-metabolized radiotracer fraction in the plasma was used as the input function. During dynamic SPECT acquisitions, 40 arterial blood samples (of 25 μl each) were withdrawn after each radiotracer injection at regular time intervals. Radioactivity was measured in a gamma counting system and expressed in kBq/ml after calibration. […]
smiles,measurement,setting,value
O=C(CCCN1CCC(O)(c2ccc(Cl)cc2)CC1)c1ccc(F)cc1 [haloperidol],increase in Bavail vs vehicle-treated group,"D2/3 receptors [1]; left CP, p = 0.07",17.9% and 17.97%
same,Bavail of [^123I]epidepride in haloperidol-treated group,D2/3 receptors [1]; left CP,25.67 ± 2.30 pmol/mL
same,increase in Bavail vs vehicle-treated group,"D2/3 receptors [1]; right CP, p = 0.12",13.8% and 13.84%
same,Bavail of [^123I]epidepride in haloperidol-treated group,D2/3 receptors [1]; right CP,25.33 ± 2.52 pmol/mL
CCN1CCC[C@H]1CNC(=O)c1cc(I)cc(OC)c1OC [[^123I]epidepride],Bavail,"D2/3 receptors [2]; Amy, fixed appKd",2.77 pmol/mL
same,Bavail,D2/3 receptors [2]; CP,21.25 pmol/mL
same,Kd,D2/3 receptors [2]; CP,0.08 nM
same,Bavail,"D2/3 receptors [2]; FC, fixed appKd",5.15 pmol/mL
same,Bavail,"D2/3 receptors [2]; Hyp, fixed appKd",3.85 pmol/mL
same,Bavail,"D2/3 receptors [2]; InfC, fixed appKd",4.46 pmol/mL
same,Bavail,D2/3 receptors [2]; NAc,11.75 pmol/mL
same,Kd,D2/3 receptors [2]; NAc,0.27 nM
same,Bavail,"D2/3 receptors [2]; SupC, fixed appKd",3.97 pmol/mL
same,Bavail,"D2/3 receptors [2]; VTA, fixed appKd",4.01 pmol/mL
same,fraction unbound,"[3]; male, Mdr1a (P-glycoprotein) knock-out, read-out: Average percentage of radiotracer bound to plasma proteins (converted)",0.78
same,A1 of bi-exponential function of mean percent non-metabolized plasma radiotracer,[3],0.61
same,A2 of bi-exponential function of mean percent non-metabolized plasma radiotracer,[3],0.27
same,f1,[3],0.22 ± 0.06
same,Bavail,D2/3 receptors [4]; Amy,2.71 pmol/mL
same,k2,D2/3 receptors [4]; Amy,0.16 min⁻¹
same,koff,D2/3 receptors [4]; Amy,0.0005 s⁻¹
same,Κ1,D2/3 receptors [4]; Amy,0.38 mL.cm^-3 .min-^1
same,Kd,D2/3 receptors [4]; Amy,0.36 nM
same,Bavail,D2/3 receptors [4]; CP,24.22 pmol/mL
same,k2,D2/3 receptors [4]; CP,0.10 min⁻¹
same,koff,D2/3 receptors [4]; CP,0.00067 s⁻¹
same,Κ1,D2/3 receptors [4]; CP,0.69 mL.cm^-3 .min-^1
same,Kd,D2/3 receptors [4]; CP,0.22 nM
same,Bavail,D2/3 receptors [4]; Cer,2.02 pmol/mL
same,k2,D2/3 receptors [4]; Cer,0.20 min⁻¹
same,koff,D2/3 receptors [4]; Cer,0.00033 s⁻¹
same,Κ1,D2/3 receptors [4]; Cer,0.66 mL.cm^-3 .min-^1
same,Kd,D2/3 receptors [4]; Cer,0.65 nM
same,Bavail,D2/3 receptors [4]; FC,20.67 pmol/mL
same,k2,D2/3 receptors [4]; FC,0.09 min⁻¹
same,koff,D2/3 receptors [4]; FC,0.0005 s⁻¹
same,Κ1,D2/3 receptors [4]; FC,0.40 mL.cm^-3 .min-^1
same,Kd,D2/3 receptors [4]; FC,4.5 nM
same,Bavail,D2/3 receptors [4]; Hyp,3.64 pmol/mL
same,k2,D2/3 receptors [4]; Hyp,0.13 min⁻¹
same,koff,D2/3 receptors [4]; Hyp,0.00083 s⁻¹
same,Κ1,D2/3 receptors [4]; Hyp,0.50 mL.cm^-3 .min-^1
same,Kd,D2/3 receptors [4]; Hyp,0.37 nM
same,Bavail,D2/3 receptors [4]; InfC,3.03 pmol/mL
same,k2,D2/3 receptors [4]; InfC,0.17 min⁻¹
same,koff,D2/3 receptors [4]; InfC,0.00067 s⁻¹
same,Κ1,D2/3 receptors [4]; InfC,0.80 mL.cm^-3 .min-^1
same,Kd,D2/3 receptors [4]; InfC,0.18 nM
same,Bavail,D2/3 receptors [4]; NAc,10.18 pmol/mL
same,k2,D2/3 receptors [4]; NAc,0.10 min⁻¹
same,koff,D2/3 receptors [4]; NAc,0.00067 s⁻¹
same,Κ1,D2/3 receptors [4]; NAc,0.53 mL.cm^-3 .min-^1
same,Kd,D2/3 receptors [4]; NAc,0.15 nM
same,Bavail,D2/3 receptors [4]; SupC,3.86 pmol/mL
same,k2,D2/3 receptors [4]; SupC,0.16 min⁻¹
same,koff,D2/3 receptors [4]; SupC,0.00083 s⁻¹
same,Κ1,D2/3 receptors [4]; SupC,0.70 mL.cm^-3 .min-^1
same,Kd,D2/3 receptors [4]; SupC,0.28 nM
same,Bavail,D2/3 receptors [4]; VTA,3.77 pmol/mL
same,k2,D2/3 receptors [4]; VTA,0.14 min⁻¹
same,koff,D2/3 receptors [4]; VTA,0.00067 s⁻¹
same,Κ1,D2/3 receptors [4]; VTA,0.57 mL.cm^-3 .min-^1
same,Kd,D2/3 receptors [4]; VTA,0.34 nM

# — publication PMC7297889, “In vivo absolute quantification of striatal and extrastriatal D2/3 receptors with [^123I]epidepride SPECT” (EJNMMI Research, 2020)
